≈ marks a conversion by molar mass, not a printed value. Entries after “also recorded” stand apart in the source; their conditions may differ.
Tests used:
[1] = test system: P. aeruginosa (ATCC 27853); assay: MIC, P. aeruginosa; assay type: cell-based; details: growth inhibition greater than 90%
Description: (§1) Minimal inhibitory concentrations (MIC) were measured according to the published method (Greenberg, W. A., Priestley, E. S., Sears, P. S., Alper, P. B., Rosenbohm, C., Hendrix, M., Hung, S.-C., & Wong, C.-H. (1999) J. Am. Chem. Soc. 121, 6527-6541). E. coli (ATCC 25922) (both wild type and pMM-transformed) and P. aeruginosa (ATCC 27853) were grown in medium 2 to an optical density OD 600 of 0.6-0.8. The inoculi were diluted to OD 600 ˜0.1 in medium 2 and 1 mL of the culture was placed in 13 mL test tubes. The desired concentrations of antibiotic were added from stock solutions. […] The absorbance at 600 nm of each sample was read and MIC was taken as the lowest antibiotic concentration inhibiting bacterial growth by greater than 90%.

E. coli (ATCC 25922) [2] = assay: Bactericidal activity (bactericide index); assay type: cell-based; details: 3 h incubation, FIG. 8
Description: The bactericidal activity of each antibiotic was investigated at concentrations of 0.5-4×MIC in medium E. coli (ATCC 25922) inoculum was added to 0.5 mL medium 2 to OD 600 ˜0.1 together with different antibiotic concentrations. The samples were incubated at 37° C. for 3 hrs, and the bacteria were collected by centrifugation. The bacterial pellets were washed with 0.5 mL of medium 2 and were plated on 1.5% medium 2 agar in 100 mm Petri dishes. The plates were incubated for 1-2 days at 37° C. and mean log 10 change in viable count was calculated and plotted vs drug concentration.

[3] = test system: E. coli (ATCC 25922) transformed with the plasmid pMM, bearing the APH(3')IIa gene; assay: Antibiotic activity disk assay, kanamycin/neomycin resistant E. coli; assay type: cell-based; details: FIG. 7B
Description: (§2) E. coli (ATCC 25922) and P. aeruginosa (ATCC 27853) (BD Bioscience) were inoculated in 3 mL of the medium 2 (U.S. Pharmacopia), containing 6 g peptone, 3 g yeast extract and 1.5 g beef extract per 1 L, pH 6.6, and were grown in a shaker for 6 h at 37° C. until an OD 560=0.6-0.8 was reached.
For the antibiotic disk assay, […] of each bacterial inoculum was mixed with 10 mL of melted agar (1.5% medium 2 agar, BD Bioscience) at 50-55° C. and poured onto 100 mm Petri dishes. Sterile Whatmann 3 MM 5 mm paper disks were soaked with antibiotic solutions and allowed to dry. The disks were positioned evenly on the surface of bacterial-inoculated solid agar and the plates were incubated at 37° C. for 1-2 days. MIC and bactericide index measurements.

[4] = test system: E. coli S30 extract, containing 70S ribosomes; assay: In vitro protein translation (CAT mRNA, 35S methionine incorporation); assay type: biochemical; details: quantitation of gel bands, read-out: IC50, concentration producing 50% inhibition of translation
Description: Protein translation was performed from chloramphenicol acetyl transferase (CAT) mRNA. […] A commercial E. coli ribosomal suspension was supplemented with an E. coli extract containing the required elements for translation. These include translation factors, tRNAs, and aminoacyl tRNA synthases. Plasmid, T7 RNA polymerase and amino acids were added to the reaction mixture, and both transcription and translation steps were performed in the same vial. The effects of the aminoglycosides on the translation process were evaluated by measuring the incorporation of ^35S methionine in the translated chloramphenicol acetyl transferase protein.
In vitro translation was performed by using PROTEINscript™-PRO (Ambion) kit. […] Reaction mixtures contained appropriate concentrations of antibiotic (neomycin B, D- and L-neamine). The protein was translated from CAT mRNA, transcribed from control DNA template containing CAT gene under control of the T7 promotor. The product, ˜25 kDa chloramphenicol acetyl transferase, was labeled during translation with 1 μCi ^35S methionine (New England Nuclear) per reaction (no cold methionine was added).
Following the translation, the samples were analyzed by electrophoresis on 4-20% SDS mini-gels (Invitrogen) for 1.5 h at 120V. Gels were fixed with 40% methanol/10% acetic acid and exposed to Molecular Dynamics phosphoimager plates, which were read on a Personal FX phosphoimager (Bio-Rad) and quantitated using QuantityOne™ software.

[5] = test system: E. coli (ATCC 25922) transformed with pMM plasmid bearing APH(3')IIa; assay: MIC, kanamycin/neomycin resistant E. coli; assay type: cell-based; details: growth inhibition greater than 90%
Description: as §2, §1

E. coli (ATCC 25922) [6] = assay: MIC, wild type E. coli; assay type: cell-based; details: growth inhibition greater than 90%
Description: as §1

80S ribosome = assay: Fluorescence anisotropy binding to 80S ribosomes; design: species or system yeast (S. cerevisiae); details: competition with CRP, yeast ribosomes; read-out: Dissociation constant (KD) with 80S ribosome
Description: (§3) After establishing the lack of stereospecificity in the binding of aminoglycosides to the A-site RNA constructs (FIG. 9A-C) where the binding affinity, KD, is about 0.1 μM to about 100 μM, the stereospecificity of aminoglycoside binding to intact ribosomes was determined. Both yeast and E. coli ribosomes were prepared and aminoglycoside binding was measured using fluorescence anisotropy methods. For example, fluorescence anisotropy methods recited in Wang, Y., and Rando, R. R. Chem. Biol. (1995) 2, 281-290; and Wang, Y., Hamasaki, K., and Rando, R. R. Biochemistry (1997) 36,768-779. CRP was used as the binding probe. […] Binding data reported herein for aminoglycoside compounds with eukaryotic yeast ribosomes are similar to binding data for said aminoglycoside compounds with ribosoimes in bacteria and with eukaryotic A-site rRNA constructs.
(§4) 5-Carboxytetramethylrhodamine-labeled paromomycin (CRP) and tobramycin (CRT) concentrations were determined spectroscopically at 550 nm using a molar extinction coefficient of 6.00×10 4 M −1 cm −1. Fluorescence anisotropy measurements were performed on a Perkin-Elmer LS-50B luminescence spectrometer equipped with a thermostat accurate to ±0.1° C. as indicated previously (Wang, Y., Hamasaki, K., & Rando, R. R. (1997) Biochemistry 36, 768-779). The tracer solution was excited at 550 nm and monitored at 580 nm. The integration time was 5 s. For every point, 6 measurements were taken, and their average values were used for calculation. Measurements were carried out in a buffer solution containing 150 mM NaCl, 5 mM KCl, 1 mM CaCl2, 1 mM MgCl2, and 20 mM HEPES (pH 7.5). Prior to measurements, RNA constructs were renatured by incubating in binding buffer {150 mM NaCl, 5 mM KCl, 1 mM CaCl2, 1 mM MgCl2, and 20 mM HEPES (pH 7.5)} for 3 minutes at 90° C. followed by slow cooling to 25° C.
(§5) Equation 1 was used for the determination of the dissociation constant (Kd) for the interactions between RNA or ribosome and CRP. A=A0+DA{(RNA)0+(CRP)0+Kd−({(RNA)0+(CRP)0+Kd}^2−4(RNA)0(CRP)0)½}/2 where A and A0 are the fluorescence anisotropy of CRP in the presence and absence of RNA, respectively, and DA is the difference between the fluorescence anisotropy of CRP in the presence of an extrapolated infinite concentration of RNA minus the fluorescence anisotropy in the absence of RNA. (RNA)0 and (CRP)0 are the initial concentrations of RNA and CRP, respectively.
(§6) Equation 2 is used for the calculation of the KD values in the competition binding assay. (aminoglycoside)0={KD(A−−A)/Kd(A−A0)+1}{(RNA)0−Kd(A−A0)/(A−−A)−(CRP)0(A−A0)/(A−−A)} where KD is the dissociation constant between the RNA and the aminoglycosides; (aminoglycoside)0 is the initial concentration of the aminoglycosides; AL is anisotropy of completely bound tracer. Both Kd and KD were determined by non-linear curve fitting using the equations described above, and are presented as mean values of three independent measurements.
The purification of yeast 80S ribosomes from S. cerevisiae strain YSB 758 was carried out according to the published procedure (Verschoor, A., Warner, J. R., Srivastava, S., Grassucci, R. A., & Frank, J. (1997) Nucl. Acid Res. 26, 655-661). S. cerevisiea YSB 758 were grown for 12 hrs at 30° C. in 2L of YPD medium, containing: 20 g bacto peptone, 20 g glucose, 10 g yeast extract and 0.15 g tryptophan per 1 L, pH 7.0. The cells were lysed by 5-10 cycles of 1 min vigorous shaking with glass beads with a vortex, followed by cooling on ice. Clarified cell extract (about 9 mL total, used in 6 portions in 1.5 mL aliqouts) was carefully loaded on top of 2 mL of a cushion, composed of 10% sucrose and 5% ammonium sulfate dissolved in buffer YR1 (20 mM HEPES pH=7.4, 16 mM magnesium chloride, 100 mM potassium chloride, 5 mM DTT, and 0.5 mM EDTA). The ribosomes were collected by centrifugation in Beckman TL100.3 rotor at 75000 rpm for 3 h. The supernatants were carefully discarded and ribosomes were collected in buffer YR1. […]

70S ribosome = assay: Fluorescence anisotropy binding to 70S ribosomes; details: competition with CRP, E. coli ribosomes; read-out: Dissociation constant (KD) with 70S ribosome
Description: as §3, §4, §5, §6
The purification of E. coli (E600) 70S ribosomes was carried out according to the published procedure (Lazaro, E., van den Broek, L. A. G. M., Felix, A. S., Ottenheijm, H. C. J., Ballesta, J. P. G. (1991) Biochemistry 30, 9642-9648). E. coli MRE600 were grown for 12 h in 6L of LB medium (10 g trypton, 5 g yeast extract, 5 g NaCl per 1 L, pH 7.0) at 37° C. Crude ribosomes were precipitated from clarified supernatant by 4 h centrifugation at 25,000 rpm in Beckman SW 28 rotor at 4° C. The ribosome pellets were collected in 5 mL of buffer BR1, containing 10 mM HEPES, pH 7.5, 500 mM ammonium acetate, 100 mM magnesium chloride and 2.5 mM DTT. The ribosome suspension was centrifuged for 20 min at 15000 rpm to be clarified. The clarified sample was loaded over two layers of 20% and 40% sucrose in buffer BR1 and centrifuged for 18 hr at 19000 rpm in Beckman SW28 rotor at 4° C. […]

**Q.** With `NCC1OC(OC2C(N)CC(N)C(O)C2O)C(N)C(O)C1O` [D-Neamine] as the molecule, how does the “Minimal inhibitory concentration (MIC), P. aeruginosa” value [1] read?
**A.** 500 µM (≈ 161 µg/mL)

**Q.** And the “Concentration at which bactericidal effect begins” value (E. coli (ATCC 25922) [2])?
**A.** 75 µM

**Q.** And the “Antibiotic activity in disk assay, kanamycin/neomycin resistant E. coli” value [3]?
**A.** selective resistance towards D-neamine; also recorded: essentially abolished

**Q.** And the IC50 [4]?
**A.** 38 µM

**Q.** What about the “Minimal inhibitory concentration (MIC), E. coli kan/neo resistant” value [5] of the same molecule?
**A.** >6400 µM

**Q.** What about the “Minimal inhibitory concentration (MIC), E. coli” value (E. coli (ATCC 25922) [6]) of the same molecule?
**A.** 150 µM (≈ 48.4 µg/mL)

**Q.** What about the Kd (80S ribosome) of the same molecule?
**A.** 1.14 ± 0.25 µM

**Q.** And the Kd (70S ribosome)?
**A.** 5.45 ± 0.68 µM

From patent US7244712B2, “Aminoglycoside antibiotics and methods of using same” (priority 2004, dated 2007)
